# In US20040225014A1, “Method for treating ocular hypertension and glaucoma” (SUCAMPO AG, priority 2003, published 2004):
# Read-outs that look alike come from different tables or passages of the source.
# Assays:
# [1] = test system: Male C3H/HeN mice; conditions: mouse, in vivo
# Description: (§1) Male C3H/HeN mice of 7 weeks old (seven groups; three mice/group) were used. Following 1-week acclimation, hair on the back of mice was shaved. Two days after the shaving, applications of test compound (13,14-dihydro-15-keto-17-phenyl-18,19,20-trinor-PGF2α isopropyl ester), latanoprost(13,14-dihydro-17-phenyl-18,19,20-trinor-PGF2α isopropyl ester), and vehicle (70 w/w % EtOH) were initiated (Day 1). 0.005%, 0.01% or 0.03% of test compound, 0.005%, 0.01% or 0.03% of latanoprost, or vehicle were applied to the shaved area of the mice at a volume of 0.1 mL once daily for 30 days. The hair growth was scored according to the following criteria.
# −: No hair growth observed
# (§2) ±: Hair growth observed; less than 10% of shaving area
# (§3) +: Hair growth observed; 10-30% of shaving area
# (§4) ++: Hair growth observed; 30-50% of shaving area
# (§5) +++: Hair growth observed; more than 50% of shaving area
# [2] = test system: eyelashes; conditions: marketed eye drops for ocular hypertension and glaucoma; cited from earlier work
# [3] = test system: Male C3H/HeN mice; assay: Hair growth scoring after once daily topical application to the shaved back of mice for 30 days; conditions: for Scores of hair growth: 0.1 mL once daily on shaved area, individual animals
# Description: as §1
# −: No hair growth observed
# as §2, §3, §4, §5
structure (smiles),measurement,setting,value
"CC(C)OC(=O)CCC/C=C\C[C@@H]1[C@@H](CC[C@@H](O)CCc2ccccc2)[C@H](O)C[C@@H]1O [Latanoprost, 13,14-dihydro-17-phenyl-18,19,20-trinor-PGF2α isopropyl ester]",Effect on the hair growth (summary in words),[1],remarkable hair growth stimulation
same,Scores of hair growth,[1],−
same,Eyelash hair growth (side effect of eye drops),[2],induce eyelash hair growth
"CCCCCCCC(=O)CC[C@@H]1[C@@H](C/C=C\CCCC(=O)OC(C)C)[C@@H](O)C[C@H]1O [Rescula®, 13,14-dihydro-15-keto-20-ethyl-PGF2α isopropylester]",Eyelash hair growth (side effect of eye drops),[2],increases length of eyelashes
"CC(C)OC(=O)CCC/C=C\C[C@@H]1[C@@H](CCC(=O)CCc2ccccc2)[C@H](O)C[C@@H]1O [Test compound, 13,14-dihydro-15-keto-17-phenyl-18,19,20-trinor-PGF2α isopropyl ester]",Scores of hair growth,"[3]; 0.005%, 19 days after first application",−
same,Scores of hair growth,"[3]; 0.005%, 22 days after first application",−
same,Scores of hair growth,"[3]; 0.005%, 23 days after first application",−
same,Scores of hair growth,"[3]; 0.005%, 24 days after first application",−
same,Scores of hair growth,"[3]; 0.005%, 25 days after first application",−
same,Scores of hair growth,"[3]; 0.005%, 26 days after first application",−
same,Scores of hair growth,"[3]; 0.005%, 29 days after first application",−
same,Scores of hair growth,"[3]; 0.005%, 30 days after first application",−
same,Scores of hair growth,"[3]; 0.01%, 19 days after first application",−
same,Scores of hair growth,"[3]; 0.01%, 22 days after first application",−
same,Scores of hair growth,"[3]; 0.01%, 23 days after first application",−
same,Scores of hair growth,"[3]; 0.01%, 24 days after first application",−
same,Scores of hair growth,"[3]; 0.01%, 25 days after first application",−
same,Scores of hair growth,"[3]; 0.01%, 26 days after first application",−
same,Scores of hair growth,"[3]; 0.01%, 29 days after first application",−
same,Scores of hair growth,"[3]; 0.01%, 30 days after first application",−
same,Scores of hair growth,"[3]; 0.03%, 19 days after first application",−
same,Scores of hair growth,"[3]; 0.03%, 22 days after first application",−
same,Scores of hair growth,"[3]; 0.03%, 23 days after first application",−
same,Scores of hair growth,"[3]; 0.03%, 24 days after first application",−
same,Scores of hair growth,"[3]; 0.03%, 25 days after first application",−
same,Scores of hair growth,"[3]; 0.03%, 26 days after first application",−
same,Scores of hair growth,"[3]; 0.03%, 29 days after first application",−
same,Scores of hair growth,"[3]; 0.03%, 30 days after first application",−
same,Effect on the hair growth (summary in words),"[3]; any concentration tested (0.005%, 0.01%, 0.03%), once daily for 30 days",no effects on the hair growth
"CCNC(=O)CCC/C=C\C[C@@H]1[C@@H](/C=C/[C@@H](O)CCc2ccccc2)[C@H](O)C[C@@H]1O [bimatoprost, 17-phenyl 18,19,20-trinor PGF2α-N-ethylamide]",Eyelash hair growth (side effect of eye drops),[2],induce eyelash hair growth
"CC(C)OC(=O)CCC/C=C\C[C@@H]1[C@@H](/C=C/[C@@H](O)COc2cccc(C(F)(F)F)c2)[C@H](O)C[C@@H]1O [travoprost, 16-(3-trifluoromethylphenoxy)-17,18,19,20-tetranor PGF2α isopropyl ester]",Eyelash hair growth (side effect of eye drops),[2],induce eyelash hair growth
